Data reported in article PMC7506137, “Selective Phosphodiesterase 1 Inhibitor BTTQ Reduces Blood Pressure in Spontaneously Hypertensive and Dahl Salt Sensitive Rats: Role of Peripheral Vasodilation” (Frontiers in Physiology, 2020).

Experiment: Fraction unbound in rat plasma
Assay type: in vitro ADME
Settings: read-out: FU Value (FU Plasma Exp Rat)
From the text: Supplement Table_2.xlsx, sheet "Supplementary table 2"

## O=c1c2nnc(C3(C4CC4)CC3)n2c2c(n1CC1CC1)CCCC2 [BTTQ, 1-[1,1′-bi(cyclopropyl)-1-yl]-5-(cyclopropylmethyl)-6,7,8,9-tetrahydro[1,2,4]triazolo[4,3-A]quinoxaline-4(5H)-one]
  fraction unbound: 0.053
